Laboratory results from patent US20250099478A1, “PLASMA KALLIKREIN INHIBITORS” (Merck Sharp & Dohme LLC, priority 2022, published 2025).

Columns and labels:
human factor XIa = molecular target: T1, human factor XIa (Homo sapiens, UniProt P03951); assay: Factor XIa Assay; format: biochemical; details: human factor XIa 0.04 nM, substrate GPR-AFC, 25° C.
T1 construct: with human (0.04 nM) factor XIa
Method: The effectiveness of a compound of the present invention as an inhibitor of Coagulation factor XIa can be determined using a relevant purified serine protease, and an appropriate synthetic substrate. The rate of hydrolysis of the chromogenic or fluorogenic substrate by the relevant serine protease was measured both in the absence and presence of compounds of the present invention. Assays were conducted at rt or at 37° C. […] A decrease in the rate of fluorescence change in the presence of inhibitor is indicative of enzyme inhibition. Such methods are known to one skilled in the art. The results of this assay are expressed as the half-maximal inhibitory concentrations (IC50), or the inhibitory constant, Ki.
Compounds were pre-incubated for 30 min at 25° C. with human (0.04 nM) factor XIa in 50 mM HEPES buffer with 150 mM sodium chloride, 5 mM calcium chloride, 0.1% PEG 8000, pH 7.4. factor XIa enzymatic activity was determined by addition of the substrate glycine-proline-arginine-7-amido-4-trifluoromethylcoumarin (GPR-AFC) and measurement of the fluorescence at 400/505 nm after a 60 min incubation at 25° C. The % inhibition for each data point was calculated from the data and analyzed using the log (inhibitor) vs. response four parameters equation to determine the half-maximal inhibitory concentrations (IC50). The IC50 were converted to equilibrium inhibitory constants (Ki) using the Cheng-Prusoff equation.

Human plasma kallikrein = molecular target: T2, Human plasma kallikrein (Homo sapiens, UniProt P03952); assay: Plasma Kallikrein Assay; format: biochemical; details: purified Human plasma kallikrein 0.5 nM, substrate Acetyl-K-P-R-AFC; read-out: PKal IC50
T2 construct: yields a heavy chain (371 amino acids) and a light chain (248 amino acids); purchased Enzyme Research Laboratories
Summary of the method: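 Purified human plasma kallikrein (0.5 nM) hydrolysing fluorogenic Acetyl-K-P-R-AFC ([…]) in 50 mM HEPES pH 7.4, 150 mM NaCl, 5 mM CaCl2, 0.1% PEG 8000, at rt or 37 °C after enzyme–inhibitor equilibration. IC50 from four-parameter logistic fit; Ki via Cheng–Prusoff.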

T1 sequence (P03951 388-625 limits assumed): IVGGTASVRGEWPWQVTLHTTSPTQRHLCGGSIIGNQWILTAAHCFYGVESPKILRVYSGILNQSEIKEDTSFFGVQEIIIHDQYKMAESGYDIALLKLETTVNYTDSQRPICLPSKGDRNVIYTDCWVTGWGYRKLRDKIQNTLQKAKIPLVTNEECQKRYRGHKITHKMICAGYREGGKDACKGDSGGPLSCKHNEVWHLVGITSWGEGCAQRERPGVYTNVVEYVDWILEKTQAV
T1 sequence (P03951 19-387 partner limits assumed): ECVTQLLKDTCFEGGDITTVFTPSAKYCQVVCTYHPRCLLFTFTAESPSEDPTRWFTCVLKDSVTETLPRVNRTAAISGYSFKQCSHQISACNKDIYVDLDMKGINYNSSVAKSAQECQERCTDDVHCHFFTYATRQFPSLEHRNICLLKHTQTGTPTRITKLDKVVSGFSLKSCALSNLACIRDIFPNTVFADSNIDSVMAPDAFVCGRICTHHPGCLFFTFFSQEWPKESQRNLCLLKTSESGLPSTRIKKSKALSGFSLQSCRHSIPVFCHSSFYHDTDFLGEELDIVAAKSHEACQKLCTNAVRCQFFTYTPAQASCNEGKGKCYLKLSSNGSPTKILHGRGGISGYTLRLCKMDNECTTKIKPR
T2 sequence (P03952 391-638 limits assumed): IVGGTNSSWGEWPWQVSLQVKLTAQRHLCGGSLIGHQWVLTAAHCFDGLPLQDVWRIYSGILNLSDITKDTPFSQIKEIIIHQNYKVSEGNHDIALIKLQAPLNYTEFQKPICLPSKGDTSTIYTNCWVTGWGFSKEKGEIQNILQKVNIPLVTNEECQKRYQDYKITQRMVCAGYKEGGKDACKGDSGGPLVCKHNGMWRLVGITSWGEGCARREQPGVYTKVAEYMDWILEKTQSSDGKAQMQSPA
T2 sequence (P03952 20-390 partner limits assumed): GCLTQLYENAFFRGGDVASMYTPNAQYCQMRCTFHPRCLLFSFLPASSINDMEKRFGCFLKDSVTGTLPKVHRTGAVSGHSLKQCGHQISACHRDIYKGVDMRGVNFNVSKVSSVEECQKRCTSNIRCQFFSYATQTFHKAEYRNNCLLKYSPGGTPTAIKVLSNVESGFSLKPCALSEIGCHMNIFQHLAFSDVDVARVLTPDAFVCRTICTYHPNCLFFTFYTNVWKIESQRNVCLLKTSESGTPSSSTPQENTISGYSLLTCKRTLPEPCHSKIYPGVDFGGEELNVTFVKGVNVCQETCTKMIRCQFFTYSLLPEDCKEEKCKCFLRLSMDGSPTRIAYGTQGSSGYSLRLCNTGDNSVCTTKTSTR

Row | SMILES | IC50 (human factor XIa) [nM] | IC50 (Human plasma kallikrein) [nM]
1 | CCC(c1ccc2c(c1)COC2)c1nnc(C(=O)N2CCC[C@@]3(C2)OC(=O)Nc2ccc(Cl)c(F)c23)[nH]1 (single isomer, unassigned) [Example 112] | 1560 | 1
2 | CCC(O)(c1ccc(F)cc1)c1n[nH]c(C(=O)N2CCC[C@@]3(C2)OC(=O)Nc2ccc(Cl)c(F)c23)n1 (single isomer, unassigned) [Example 128, (R)-6-Chloro-5-fluoro-1′-(3-(UR or S)-1-(4-fluorophenyl)-1-hydroxypropyl)-1H-1,2,4-triazole-5-carbonyl)spiro[benzo[d][1,3]oxazine-4,3′-piperidin]-2(1H)-one] | 382 | 4
3 | CCC(F)(c1ccc(F)cc1)c1n[nH]c(C(=O)N2CCC[C@@]3(C2)OC(=O)Nc2ccc(Cl)c(F)c23)n1 (single isomer, unassigned) [Example 129, (3′R)-6-Chloro-5-fluoro-1′-(3-(1-fluoro-1-(4-fluorophenyl)propyl)-1H-1,2,4-triazole-5-carbonyl)spiro[benzo[d][1.3]oxazine-4,3′-piperidin]-2(1H)-one] | 4300 | 8.9
4 | O=C1Nc2ccc(Cl)c(F)c2[C@@]2(CCCN(C(=O)c3cnn(Cc4ccnc(C(F)(F)F)c4)c3)C2)O1 [Example 7, (R)-6-Chloro-5-fluoro-1′-(1-((2-(trifluoromethyl)pyridin-4-yl)methyl)-1H-pyrazole-4-carbonyl)spiro[benzo[d][1,3]oxazine-4,3′-piperidin]-2(1H)-one] | 881 | 37.5
5 | C[C@H](O)[C@@H](c1ccccc1)n1cc(C(=O)N2CCC[C@@]3(C2)OC(=O)Nc2ccc(Cl)c(F)c23)cn1 [Example 9, (R)-6-Chloro-5-fluoro-1′-(1-((1R,2S)-2-hydroxy-1-phenylpropyl)-1H-pyrazole-4-carbonyl)spiro[benzo[d][1,3]oxazine-4,3′-piperidin]-2(1H)-one] | 5590 | 29.7
6 | CO[C@@H](C)[C@@H](c1ccccc1)n1cc(C(=O)N2CCC[C@@]3(C2)OC(=O)Nc2ccc(Cl)c(F)c23)cn1 [Example 11, (R)-6-Chloro-5-fluoro-1′-(1-((1R,2S)-2-methoxy-1-phenylpropyl)-1H-pyrazole-4-carbonyl)spiro[benzo[d][1,3]oxazine-4,3′-piepridine]-2(1H)-one] | 4330 | 20
7 | COCC(c1ccccc1)n1cc(C(=O)N2CCC[C@@]3(C2)OC(=O)Nc2ccc(Cl)c(F)c23)cn1 (stereo partly drawn) [Example 14, (4R)-6-Chloro-5-fluoro-1′-(1-(2-methoxy-1-phenylethyl)-1H-pyrazole-4-carbonyl)spiro[benzo[d][1,3]oxazine-4,3′-piperidin]-2(1H)-one] | 1530 | 16.2
8 | CO[C@H](C)[C@H](c1ccccc1)n1cc(C(=O)N2CCC[C@@]3(C2)OC(=O)Nc2ccc(Cl)c(F)c23)cn1 [Example 15, (R)-6-Chloro-5-fluoro-1′-(1-((1S,2R)-2-methoxy-1-phenylpropyl)-1H-pyrazole-4-carbonyl)spiro[benzo[d][1,3]oxazine-4,3′-piperidin]-2(1H)-one] | 2710 | 38.1
9 | C[C@@H](O)[C@H](c1ccccc1)n1cc(C(=O)N2CCC[C@@]3(C2)OC(=O)Nc2ccc(Cl)c(F)c23)cn1 [Example 16, (R)-6-Chloro-5-fluoro-1′-(1-((1S,2R)-2-hydroxy-1-phenylpropyl)-1H-pyrazole-4-carbonyl)spiro[benzo[d][1,3]oxazine-4,3′-piperidin]-2(1H)-one] | 1450 | 40.3
10 | O=C1Nc2ccc(Cl)c(F)c2[C@@]2(CC(C3CC3)CN(C(=O)c3cnn(Cc4ccccc4)c3)C2)O1 (stereo partly drawn) [Example 22, (4R)-1′-(1-Benzyl-1H-pyrazole-4-carbonyl)-6-chloro-5′-cyclopropyl-5-fluorospiro[benzo[d][1,3]oxazine-4,3′-piperidin]-2(1H)-one] | 1370 | 7.9
11 | O=C1Nc2ccc(Cl)c(F)c2[C@@]2(CCCN(C(=O)c3cnn([C@](CO)(CC4CC4)c4ccc(F)cc4)c3)C2)O1 [Example 34, (R)-6-Chloro-1′-(1-((R)-1-cyclopropyl-2-(4-fluorophenyl)-3-hydroxypropan-2-yl)-1H-pyrazole-4-carbonyl)-5-fluorospiro[benzo[d][1,3]oxazine-4,3′-piperidin]-2(1H)-one] | 270 | 13.1
12 | O=C1Nc2ccc(Cl)c(F)c2[C@@]2(CCCN(C(=O)c3nc(Cc4ccccc4)c[nH]3)C2)O1 [Example 65, (R)-1′-(4-Benzyl-1H-imidazole-2-carbonyl)-6-chloro-5-fluorospiro[benzo[d][1,3]oxazine-4,3′-piperidin]-2(1H)-one] | 1770 | 19.3
13 | CCC(c1ccc(F)cc1)c1c[nH]c(C(=O)N2CCC[C@@]3(C2)OC(=O)Nc2ccc(Cl)c(F)c23)n1 (stereo partly drawn) [Example 70, (4R)-6-Chloro-5-fluoro-1′-(4-(1-(4-fluorophenyl)propyl)-1H-imidazole-2-carbonyl)spiro[benzo[d][1,3]oxazine-4,3′-piperidin]-2(1H)-one] | 946 | 5.7
14 | O=C1Nc2ccc(Cl)c(F)c2[C@@]2(CCCN(C(=O)c3cnc(Cc4ccc(F)cc4)[nH]3)C2)O1 [Example 76, (R)-6-Chloro-5-fluoro-1′-(2-(4-fluorobenzyl)-1H-imidazole-5-carbonyl)spiro[benzo[d][1,3]oxazine-4,3′-piperidin]-2(1H)-one] | 4580 | 16.1
15 | O=C1Nc2ccc(Cl)c(F)c2[C@@]2(CCCN(C(=O)c3cnc([C@@H](O)c4ccc(F)cc4)[nH]3)C2)O1 [Example 77] | 8130 | 56.6
16 | CCCCC(O)(c1ccc(F)cc1)c1ncc(C(=O)N2CCC[C@@]3(C2)OC(=O)Nc2ccc(Cl)c(F)c23)[nH]1 (stereo partly drawn) [Example 81, (3′R)-6-Chloro-5-fluoro-1′-(2-(1-(4-fluorophenyl)-1-hydroxypentyl)-1H-imidazole-5-carbonyl)spiro[benzo[d][1.3]oxazine-4,3′-piperidin]-2(1H)-one] | 2300 | 8.7
17 | O=C1Nc2ccc(Cl)c(F)c2[C@@]2(CCCN(C(=O)c3nnc(Cc4ccccc4)[nH]3)C2)O1 [Example 86, (R)-1′-(5-Benzyl-4H-1,2,4-triazole-3-carbonyl)-6-chloro-5-fluorospiro[benzo[d][1,3]oxazine-4,3′-piperidin]-2(1H)-one] | 6890 | 24.8
18 | O=C1Nc2ccc(Cl)c(F)c2[C@@]2(CCCN(C(=O)c3nnc(C4(c5ccc(F)cc5)CCC4)[nH]3)C2)O1 [Example 88, (R)-6-Chloro-5-fluoro-1′-(5-(1-(4-fluorophenyl)cyclobutyl)-4H-1,2,4-triazole-3-carbonyl)spiro[benzo[d][1,3]oxazine-4,3′-piperidin]-2(1H)-one] | 4440 | 13.7
19 | CC1(C)CN(C(=O)c2nnc(Cc3ccccc3)[nH]2)C[C@]2(C1)OC(=O)Nc1ccc(Cl)c(F)c12 [Example 89, (R)-1′-(5-Benzyl-4H-1,2,4-triazole-3-carbonyl)-6-chloro-5-fluoro-5′,5′-dimethylspiro[benzo[d][1,3]oxazine-4,3′-piperidin]-2(1H)-one] | 7200 | 14.9
20 | CC(C)(c1ccccc1)c1nnc(C(=O)N2CCC[C@@]3(C2)OC(=O)Nc2ccc(Cl)c(F)c23)[nH]1 [Example 93, (R)-6-Chloro-5-fluoro-1′-(5-(2-phenylpropan-2-yl)-4H-1,2,4-triazole-3-carbonyl)spiro[benzo[d][1,3]oxazine-4,3′-piperidin]-2(1H)-one] | 3160 | 29.9
21 | O=C1Nc2ccc(Cl)c(F)c2[C@@]2(CCCN(C(=O)c3nnc(C4(c5ccc(F)cc5)CCOCC4)[nH]3)C2)O1 [Example 94, (R)-6-Chloro-5-fluoro-1′-(5-(4-(4-fluorophenyl)tetrahydro-2H-pyran-4-yl)-4H-1,2,4-triazole-3-carbonyl)spiro[benzo[d][1,3]oxazine-4,3′-piperidin]-2(1H)-one] | 2490 | 5.6
22 | CC1(C)CN(C(=O)c2nnc(C(C)(C)c3ccccc3)[nH]2)C[C@]2(C1)OC(=O)Nc1ccc(Cl)c(F)c12 [Example 95, (R)-6-Chloro-5-fluoro-5′,5′-dimethyl-1′-(5-(2-phenylpropan-2-yl)-4H-1,2,4-triazole-3-carbonyl)spiro[benzo[d][1,3]oxazine-4,3′-piperidin]-2(1H)-one] | 3010 | 21.4
23 | CC[C@@H](c1cc(C)c2nc[nH]c2c1)c1n[nH]c(C(=O)N2CCC[C@@]3(C2)OC(=O)Nc2ccc(Cl)c(F)c23)n1 [Example 109, (R)-6-Chloro-5-fluoro-1′-(3-((S)-1-(4-methyl-1H-benzo[d]imidazol-6-yl)propyl)-TH-1,2,4-triazole-5-carbonyl)spiro[benzo[d][1,3]oxazine-4,3′-piperidin]-2(1H)-one] | 646 | 1.3
